Measurements: the NIST ThermoML archive (doi:10.1016/j.fluid.2014.01.019)
± gives the expanded uncertainty stated by the source.

Details: Liquid; for mass density: 101.33 kPa, Vibrating tube method; for speed of sound: 101 kPa, Frequency=2 MHz, Linear variable-path acoustic interferometer

mass density (298.15 K)	speed of sound (303.15 K)	mass density (303.15 K)	mass density (308.15 K)	speed of sound (313.15 K)	mass density (313.15 K)	SMILES
1076.47 ± 0.15 kg/m3	1285 ± 8 m/s	1072.86 ± 0.15 kg/m3	1068.21 ± 0.15 kg/m3	1248 ± 8 m/s	1064.01 ± 0.15 kg/m3	Cc1ccccc1Cl [2-chlorotoluene]
1067.25 ± 0.15 kg/m3	1281 ± 8 m/s	1062.79 ± 0.15 kg/m3	1058.29 ± 0.15 kg/m3	1247 ± 8 m/s	1053.49 ± 0.15 kg/m3	Cc1cccc(Cl)c1 [3-chlorotoluene]
1064.93 ± 0.16 kg/m3	1274 ± 8 m/s	1059.56 ± 0.16 kg/m3	1054.27 ± 0.15 kg/m3	1237 ± 8 m/s	1049.29 ± 0.15 kg/m3	Cc1ccc(Cl)cc1 [4-chlorotoluene]
1041.44 ± 0.14 kg/m3	1514 ± 9 m/s	1037.67 ± 0.14 kg/m3	1033.75 ± 0.14 kg/m3	1485 ± 9 m/s	1029.91 ± 0.14 kg/m3	OCc1ccccc1 [benzenemethanol]

SMILES	mass density (298.15 K)	speed of sound (303.15 K)	mass density (303.15 K)	mass density (308.15 K)	speed of sound (313.15 K)	mass density (313.15 K)
Cc1ccccc1[N+](=O)[O-] [2-nitrotoluene]	1159.6 ± 0.19 kg/m3	1439 ± 9 m/s	1153.29 ± 0.18 kg/m3	1149.78 ± 0.18 kg/m3	1403 ± 9 m/s	1144.91 ± 0.18 kg/m3
Cc1cccc([N+](=O)[O-])c1 [3-nitrotoluene]	1152.23 ± 0.18 kg/m3	1442 ± 9 m/s	1147.67 ± 0.18 kg/m3	1142.67 ± 0.18 kg/m3	1409 ± 9 m/s	1137.98 ± 0.18 kg/m3
